Experimental data published in article PMC2760454 (Biochemistry, 2008).
Where two headings read alike, the source gives them in different places. Values belong to the compound of their own block, whether it stands above or below them.

Assays:
[1] = molecular target: T1, homoisocitrate dehydrogenase (HIcDH) (Saccharomyces cerevisiae, UniProt P40495); assay: Product and dead-end inhibition studies of HIcDH in the absence of K+; type: biochemical; details: NAD fixed at its Km
[2] = molecular target: T1, homoisocitrate dehydrogenase (HIcDH); assay: HIcDH initial velocity studies; type: biochemical; details: for Kact (activation constant): varied salt, MgHIc 4.2 µM, NAD 0.5 mM, fit to eq. 1
[3] = molecular target: T1, homoisocitrate dehydrogenase (HIcDH); assay: pH dependence of HIcDH kinetic parameters and of the activation constant of K+; type: biochemical
[4] = molecular target: T1, homoisocitrate dehydrogenase (HIcDH); details: in the presence of K+; cited from earlier work

T1 sequence (P40495 23-371): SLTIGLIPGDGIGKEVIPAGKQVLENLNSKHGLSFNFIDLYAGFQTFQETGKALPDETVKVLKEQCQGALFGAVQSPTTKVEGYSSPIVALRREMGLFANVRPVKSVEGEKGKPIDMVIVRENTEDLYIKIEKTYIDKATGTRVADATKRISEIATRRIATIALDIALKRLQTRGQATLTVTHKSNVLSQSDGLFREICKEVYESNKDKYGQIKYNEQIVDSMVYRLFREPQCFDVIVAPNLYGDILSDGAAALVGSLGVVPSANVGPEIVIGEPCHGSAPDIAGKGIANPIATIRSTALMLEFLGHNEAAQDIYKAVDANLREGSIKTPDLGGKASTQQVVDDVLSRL

inhibition constant, competitive versus MgHIc [1]: 65 ± 7 ∝M
SMILES: O=C(O)CCC=C(C(=O)O)C(O)C(=O)O (stereo not drawn) [CPM, 3-Carboxypropylidenemalate]

fold increase in initial rate ([2]; 200 mM KCl versus absence, reactants fixed at their Km values): 13 fold
Kact (activation constant) [2]: 55 ± 20 mM
SMILES: [Cl-].[K+] [KCl]

Ki fold higher than with KCl ([2]; KOAc versus KCl): 5 fold
Kact (activation constant) [2]: 26 ± 4 mM
SMILES: CC(=O)[O-].[K+] [KOAc, Potassium acetate]

Kd ([2]; read-out: KiK, NAD varied at fixed KOAc, MgHIc saturating (10Km), fit to eq. 5): 43 ± 19 mM
appKact, pH independent value ([3]; KOAc varied, NAD 0.4 mM, MgHIc 10Km, average of data above pH 7): about 13 mM
SMILES: [K+] [K^+, Potassium]

SMILES: NC(=O)c1ccc[n+]([C@@H]2O[C@H](COP(=O)([O-])OP(=O)(O)OC[C@H]3O[C@@H](n4cnc5c(N)ncnc54)[C@H](O)[C@@H]3O)[C@@H](O)[C@H]2O)c1 [NAD, nicotinamide adenine dinucleotide]
Kd [2]: 77 ± 57 mM
KNAD ([2]; KCl 0 mM): 9 ± 3 mM
KNAD ([2]; KCl 5 mM): 1.6 ± 0.2 mM
KNAD ([2]; KCl 15 mM): 1.3 ± 0.1 mM
KNAD ([2]; KCl 150 mM): 0.8 ± 0.1 mM
KNAD ([2]; KCl 350 mM): 0.9 ± 0.2 mM
KNAD ([2]; Minus KOAc, pH 8.0, 25°C): 9 ± 3 mM
V1/KNADEt ([2]; Minus KOAc, pH 8.0, 25°C): (5 ± 1) × 10^2 M^−1·s^−1
KNAD ([2]; NAD varied at fixed KOAc, MgHIc saturating (10Km), fit to eq. 5): 0.3 ± 0.1 mM
KNAD ([2]; Plus KOAc, pH 8.0, 25°C): 0.3 ± 0.1 mM
V1/KNADEt ([2]; Plus KOAc, pH 8.0, 25°C): (4 ± 1) × 10^4 M^−1·s^−1
V/KNADEt, constant value at high pH ([3]; absence of K+, pH 8.5 to 9.7): about 123 ± 3 M^−1s^−1

SMILES: NC(=O)C1=CN([C@@H]2O[C@H](COP(=O)(O)OP(=O)(O)OC[C@H]3O[C@@H](n4cnc5c(N)ncnc54)[C@H](O)[C@@H]3O)[C@@H](O)[C@H]2O)C=CC1 [NADH, reduced nicotinamide adenine dinucleotide]
Ki [4]: 0.3 mM

SMILES: C[N+](C)(C)C.[Cl-] [tetramethylammonium chloride, reference compound]
initial rate as % of that without KCl ([2]; 200 mM, fixed concentrations of MgHIc and NAD): about 36%
